Test: method code SF-GLC, from DOI: 10.1016/s0022-3565(25)29827-5, PMID: 4823294
Settings: pH 7.4
`CCCCCCOC(N)=O` gave a logD of 1.85. With `CC(C)(C)OC(N)=O` the logD was 0.48. `CCCCCCCOC(N)=O` gave a logD of 2.36. `CCCCCCCCOC(N)=O` gave a logD of 2.84. Work on `NC(=O)OCc1ccccc1` yielded a logD of 1.23. In the case of `CCCCCOC(N)=O`, the logD was 1.35. In the case of `CCCOC(N)=O`, the logD was 0.36. In the case of `CCCCOC(N)=O`, the logD was 0.85. Molecule `CC(C)(C)COC(N)=O` has a logD of 0.94. With `CCC(C)(C)COC(N)=O` the logD was 1.45.

From the SangsterLogP compilation
